Laboratory results reported in ChEMBL document CHEMBL1201862, “PubChem BioAssay data set” (2004).
The source made the active and inactive calls.

How the values were obtained:
[1] = molecular target: T1, Calpain-2 catalytic subunit (Sus scrofa, UniProt P43367); experiment: pig calpain II inhibitor potency, dose response, biochemical, fluorogenic peptide substrate (AID 1420); assay type: functional
T1 sequence (P43367 whole entry): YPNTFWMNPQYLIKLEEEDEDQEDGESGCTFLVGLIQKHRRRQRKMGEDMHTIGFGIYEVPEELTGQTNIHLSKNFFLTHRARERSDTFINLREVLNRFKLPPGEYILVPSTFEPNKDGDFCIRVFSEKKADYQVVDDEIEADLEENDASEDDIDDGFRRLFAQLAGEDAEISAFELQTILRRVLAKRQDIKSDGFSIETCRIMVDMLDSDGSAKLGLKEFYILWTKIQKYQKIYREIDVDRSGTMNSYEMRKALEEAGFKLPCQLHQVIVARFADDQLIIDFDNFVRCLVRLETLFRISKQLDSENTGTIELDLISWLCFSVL

[2] = test system: BJ; experiment: cytotoxicity toward BJ-TERT fibroblasts, dose response, cell-based, RAS-independent, luminescence (AID 1933); assay type: functional; conditions: Homo sapiens
[3] = test system: BJ; experiment: cells; assay type: functional, cell-based; conditions: Homo sapiens
[4] = test system: BJ; experiment: cytotoxicity toward BJ-TERT-LT-ST fibroblasts, dose response, cell-based, RAS-independent, luminescence (AID 1935); assay type: functional; conditions: Homo sapiens;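 note: BJ fibroblasts immortalized with TERT plus LT and ST oncogenes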
[5] = cytotoxicity toward DRD oncogenic fibroblasts, dose response, cell-based, non-viral oncogenic, luminescence (AID 1934); assay type: functional; conditions: Homo sapiens
[6] = HEp-2 cell cytotoxicity, dose response, cytotoxicity control for RSV inhibitor project, HTS (AID 2410); assay type: functional; conditions: human respiratory syncytial virus
[7] = Luminescence Cell-Based Dose Retest to Confirm Inhibitors of Cancer Stem Cells. [Related pubchem assays (depositor defined):AID2717, AID2721]; assay type: functional; conditions: Homo sapiens
[8] = NIH-3T3 fibroblast cytotoxicity, dose response, cytotoxicity control, cell-based, fluorescence, Alamar Blue, secondary assay (AID 2327); assay type: functional;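 note: NIH-3T3 mouse fibroblasts cultured with fluconazole at 8 µg/mL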
[9] = C. albicans growth with fluconazole, confirmation, fluorescence, retest (AID 2467); assay type: functional, cell-based
[10] = molecular target: Paired box protein Pax-8 (Homo sapiens, UniProt Q06710); experiment: inhibitors of PAX8-driven TPO luciferase reporter, dose response, RMG-I cells, cherry-pick (AID 687027); assay type: functional, cell-based;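 note: luciferase reporter driven by Pax8 target thyroperoxidase promoter measured by SteadyGlo luminescence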
Sequence of Paired box protein Pax-8 (Q06710 whole entry): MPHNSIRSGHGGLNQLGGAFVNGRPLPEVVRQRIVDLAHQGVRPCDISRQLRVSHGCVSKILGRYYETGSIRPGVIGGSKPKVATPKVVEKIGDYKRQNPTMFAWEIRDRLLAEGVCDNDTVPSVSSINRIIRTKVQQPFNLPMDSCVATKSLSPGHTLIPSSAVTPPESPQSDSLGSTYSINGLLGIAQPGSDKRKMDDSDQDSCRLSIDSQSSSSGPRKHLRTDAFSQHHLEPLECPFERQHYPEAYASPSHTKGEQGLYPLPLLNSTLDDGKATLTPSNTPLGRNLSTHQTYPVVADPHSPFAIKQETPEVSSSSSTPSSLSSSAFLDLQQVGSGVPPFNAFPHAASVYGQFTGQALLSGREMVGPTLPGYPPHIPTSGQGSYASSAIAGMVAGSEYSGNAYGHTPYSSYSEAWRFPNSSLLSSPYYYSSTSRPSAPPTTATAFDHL

[11] = molecular target: Cytochrome P450 2C19 (Homo sapiens, UniProt P33261); experiment: Cytochrome panel assay with activity outcomes. Panel member name: p450-cyp2c19 Compounds with AC50 equal or less than 10 uM are considered active; assay type: functional
Sequence of Cytochrome P450 2C19 (P33261 whole entry): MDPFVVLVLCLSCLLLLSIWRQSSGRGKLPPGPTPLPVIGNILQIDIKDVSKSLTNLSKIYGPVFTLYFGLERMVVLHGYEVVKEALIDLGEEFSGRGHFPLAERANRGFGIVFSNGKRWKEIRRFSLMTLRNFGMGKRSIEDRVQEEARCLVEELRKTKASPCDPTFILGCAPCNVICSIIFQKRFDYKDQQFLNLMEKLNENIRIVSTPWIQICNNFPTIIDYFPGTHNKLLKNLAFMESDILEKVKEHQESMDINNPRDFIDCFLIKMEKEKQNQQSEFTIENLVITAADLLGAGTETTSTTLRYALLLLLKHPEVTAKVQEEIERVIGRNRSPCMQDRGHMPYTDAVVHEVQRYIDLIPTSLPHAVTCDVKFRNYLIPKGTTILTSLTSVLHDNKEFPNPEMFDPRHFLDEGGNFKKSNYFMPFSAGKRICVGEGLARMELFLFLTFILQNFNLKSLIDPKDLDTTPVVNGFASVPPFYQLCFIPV

[12] = molecular target: Cytochrome P450 3A4 (Homo sapiens, UniProt P08684);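 note: CYP3A4 tested as one member of a cytochrome P450 panel screen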
Sequence of Cytochrome P450 3A4 (P08684 whole entry): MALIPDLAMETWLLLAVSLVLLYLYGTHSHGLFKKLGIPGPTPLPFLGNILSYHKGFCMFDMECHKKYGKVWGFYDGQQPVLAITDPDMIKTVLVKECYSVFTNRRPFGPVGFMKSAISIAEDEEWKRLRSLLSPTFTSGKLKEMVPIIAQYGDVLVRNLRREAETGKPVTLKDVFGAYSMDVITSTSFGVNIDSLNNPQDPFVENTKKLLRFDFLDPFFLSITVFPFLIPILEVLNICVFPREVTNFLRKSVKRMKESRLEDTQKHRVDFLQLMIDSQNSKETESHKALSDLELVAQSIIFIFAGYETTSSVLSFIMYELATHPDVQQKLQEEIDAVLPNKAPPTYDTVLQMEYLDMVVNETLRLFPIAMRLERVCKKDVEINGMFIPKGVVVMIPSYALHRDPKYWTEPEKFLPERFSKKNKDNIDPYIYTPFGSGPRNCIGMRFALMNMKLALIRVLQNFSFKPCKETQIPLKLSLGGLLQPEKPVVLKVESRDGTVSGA

[13] = inhibitors of intracellular T. cruzi replication, confirmation, NIH3T3 host cells, beta-gal luminescence (AID 2044); assay type: functional, cell-based;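 note: intracellular parasites grown in NIH/3T3 mouse fibroblasts as host cells; luminescent beta-galactosidase reporter signal from transgenic T. cruzi replicating inside host cells; inhibitors lower the luminescence signal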
[14] = cytotoxicity toward NIH3T3 fibroblasts, dose response, counter-screen, cell-based, ATP luminescence, mouse fibroblasts (AID 2010); assay type: functional;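 note: cells exposed to compound for about 90 hours before reading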
[15] = test system: Streptococcus sp. 'group A'; experiment: growth inhibition of control SK(-) GAS strain, dose response, counter-screen for streptokinase expression inhibitor project, luminescence, kanamycin, BacTiterGlo, confirmation (AID 1900); assay type: functional, organism-based
[16] = molecular target: T2, Streptokinase A (Streptococcus pyogenes serotype M1, UniProt P10520); experiment: S. pyogenes streptokinase expression inhibitors, potency, dose response, plasminogen activation absorbance, OD405 (AID 1914); assay type: functional, Streptococcus pyogenes M1 GAS;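 note: secreted streptokinase activity via plasminogen activation per viability signal from cell pellet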
T2 sequence (P10520 whole entry): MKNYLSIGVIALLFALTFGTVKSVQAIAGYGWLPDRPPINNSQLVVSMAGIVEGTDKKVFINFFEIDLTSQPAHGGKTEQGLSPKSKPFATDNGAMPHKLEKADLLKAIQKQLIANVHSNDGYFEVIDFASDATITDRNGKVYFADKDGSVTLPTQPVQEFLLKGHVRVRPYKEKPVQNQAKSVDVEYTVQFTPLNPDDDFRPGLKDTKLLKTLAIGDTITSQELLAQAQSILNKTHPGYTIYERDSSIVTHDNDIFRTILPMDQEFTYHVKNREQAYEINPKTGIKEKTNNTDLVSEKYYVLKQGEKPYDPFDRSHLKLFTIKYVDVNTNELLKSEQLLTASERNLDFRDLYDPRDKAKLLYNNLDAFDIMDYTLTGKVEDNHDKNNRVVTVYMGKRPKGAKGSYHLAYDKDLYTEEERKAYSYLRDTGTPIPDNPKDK

[17] = test system: Streptococcus; experiment: Group A Streptococcus viability loss, dose response, counter-screen for streptokinase expression inhibitor project, luminescence, BacTiterGlo (AID 1915); assay type: functional, organism-based;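 note: potency for reduction of bacterial viability or growth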
[18] = molecular target: T3, Cytochrome P450 1A2 (Homo sapiens, UniProt P05177);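 note: PubChem cytochrome P450 panel assay, CYP1A2 panel member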
T3 sequence (P05177 whole entry): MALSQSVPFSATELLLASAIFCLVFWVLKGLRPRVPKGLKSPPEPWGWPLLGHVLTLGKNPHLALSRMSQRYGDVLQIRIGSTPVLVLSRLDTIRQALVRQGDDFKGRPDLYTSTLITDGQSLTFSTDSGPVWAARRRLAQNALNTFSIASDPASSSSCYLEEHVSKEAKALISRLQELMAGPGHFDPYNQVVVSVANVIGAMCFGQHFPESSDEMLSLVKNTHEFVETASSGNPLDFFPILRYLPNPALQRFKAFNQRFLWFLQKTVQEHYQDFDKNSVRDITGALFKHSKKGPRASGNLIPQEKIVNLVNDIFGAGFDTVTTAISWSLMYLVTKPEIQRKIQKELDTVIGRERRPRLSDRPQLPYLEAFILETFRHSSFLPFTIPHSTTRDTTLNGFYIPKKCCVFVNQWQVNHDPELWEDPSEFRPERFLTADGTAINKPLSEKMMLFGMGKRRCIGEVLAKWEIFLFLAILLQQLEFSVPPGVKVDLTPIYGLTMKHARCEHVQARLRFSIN

[19] = molecular target: Cytochrome P450 2C9 (Homo sapiens, UniProt P11712)
Sequence of Cytochrome P450 2C9 (P11712 whole entry): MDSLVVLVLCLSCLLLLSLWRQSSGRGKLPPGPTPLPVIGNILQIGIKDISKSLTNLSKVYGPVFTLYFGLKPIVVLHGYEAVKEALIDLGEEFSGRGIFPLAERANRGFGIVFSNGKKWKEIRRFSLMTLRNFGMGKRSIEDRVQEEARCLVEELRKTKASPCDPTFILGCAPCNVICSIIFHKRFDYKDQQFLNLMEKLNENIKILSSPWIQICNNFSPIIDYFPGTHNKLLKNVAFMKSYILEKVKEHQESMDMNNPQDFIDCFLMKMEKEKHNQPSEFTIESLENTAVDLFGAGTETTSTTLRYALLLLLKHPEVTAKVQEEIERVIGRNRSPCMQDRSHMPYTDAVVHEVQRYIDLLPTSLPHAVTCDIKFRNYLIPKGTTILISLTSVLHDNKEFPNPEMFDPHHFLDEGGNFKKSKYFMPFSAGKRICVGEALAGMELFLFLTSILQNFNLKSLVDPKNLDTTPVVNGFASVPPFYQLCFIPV

## CCN(CC)S(=O)(=O)c1ccc(C(=O)NCc2ccc3c(c2)OCO3)cc1
[1]
  IC50: > 50 µM (not active)

## COc1cc(/C=C2/SC(=S)N(CC(=O)Nc3cccnc3)C2=O)cc(OC)c1OC
[2]
  EC50: > 150 µM (not active)
[3]
  EC50: > 150 µM (not active)
[4]
  EC50: > 150 µM (inconclusive)
[5]
  EC50: > 150 µM (not active)

## CCOc1ccc(NC(=O)C(c2ccccn2)N(C(=O)CCl)c2ccc(OC)cc2)cc1 (stereo unspecified)
[2]
  EC50: > 150 µM (not active)
[3]
  EC50: > 150 µM (not active)
[4]
  EC50: > 150 µM (inconclusive)
[5]
  EC50: > 150 µM (not active)

## COc1ccc(C(NC(=O)C(C)C)c2c(O)ccc3ccccc23)cc1OC (stereo unspecified)
[1]
  IC50: 18.4 µM (not active)

## CCn1c(=O)[nH]c2ccccc2/c1=N/C(=O)c1ccc(F)cc1
[6]
  CC50: 28 µM (active)

## O=C1C[N+]([O-])=Cc2[nH]c3ccccc3c2N1c1ccc([N+](=O)[O-])cc1
[1]
  IC50: 4.76 µM (not active)

## CSCCC(NS(=O)(=O)c1ccc(Cl)cc1)C(=O)OCC(=O)N1CCCc2ccccc21 (stereo unspecified)
[1]
  IC50: 14.6 µM (not active)

## O=C(Nc1ccc2c(c1)OCCO2)C(=O)c1c[nH]c2ccccc12
[2]
  EC50: 14.2 µM (active)
[3]
  EC50: 28.3 µM (active)
[4]
  EC50: 24.5 µM (inconclusive)
[5]
  EC50: 4.19 µM (inconclusive)
[7]
  AC50: 0.718 µM (active)

## CN1C(=O)/C(=C\C(=O)c2cccs2)c2ccccc21
[8]
  EC50: > 150 µM (inconclusive)
[9]
  EC50: > 38 µM (not active)
[10]
  AC50: 23.1 µM (active)

## CCS(=O)(=O)NCCc1cc2ccc(C)cc2nc1O
[11]; read-out: AC50
  AC50: 10 µM (inconclusive)
[12]
  AC50: 39.8 µM (inconclusive)

## Cc1onc(-c2c(F)cccc2Cl)c1C(=O)NNC(=O)C1CCN(Cc2ccccc2)CC1
[8]
  EC50: > 150 µM (inconclusive)
[9]
  EC50: > 38 µM (not active)

## O=C(O)/C=C/c1ccc(S(=O)(=O)Nc2ccc(C(=O)NCC(=O)O)cc2)cc1
[8]
  EC50: > 160 µM (inconclusive)
[9]
  EC50: > 38 µM (not active)

## Cc1cc(=O)oc2c(C)c(OCC(=O)N3CCN(c4cccc(Cl)c4)CC3)ccc12
[6]
  CC50: 29.2 µM (active)

## Cc1cccc(OCCNc2cc(N3CCN(CCO)CC3)ccc2[N+](=O)[O-])c1
[6]
  CC50: 15.6 µM (active)

## CCOc1ccc(NC2=NC(=O)CS2)cc1
[6]
  CC50: 24.5 µM (active)

## CCCC1=Nc2cc(C(=O)NCCCOC(C)C)ccc2Sc2ccccc21
[2]
  EC50: 9.44 µM (inconclusive)
[3]
  EC50: 37.8 µM (active)
[4]
  EC50: 17.2 µM (inconclusive)
[5]
  EC50: 5.1 µM (active)

## COc1ccc(C(=O)Nc2nc3ccc(OC)cc3s2)cc1
[6]
  CC50: 21.5 µM (active)

## O=C1[C@@H]2[C@H]3[C@H](O)[C@H](O)C/C(=N/OC[C@@H](O)COCc4ccco4)[C@@H]3CC[C@H]2C(=O)N1c1ccc(F)cc1F
[11]
  AC50: inconclusive
[12]
  AC50: 3.16 µM (inconclusive)

## Cc1ncsc1CCOC(=O)C1C2CC3CC(C2)CC1C3 (stereo unspecified)
[1]
  IC50: 45.8 µM (not active)

## CNc1nccc(-c2ccc(F)cc2)c1C#N
[6]
  CC50: 47.5 µM (active)

## Oc1nc(-c2ccccn2)nc(C(F)(F)F)c1Br
[8]
  EC50: > 150 µM (inactive)
[9]
  EC50: 0.596 µM (active)
[13]
  EC50: 1.86 µM (active)
[14]
  EC50: 10.9 µM (active)

## Cc1cc(Br)ccc1SCC(=O)OCC(=O)c1c(N)n(C)c(=O)n(C)c1=O
[1]
  IC50: 10.8 µM (active)

## CCC(=O)OCC(=O)c1cc(C)n(-c2ccc(Br)cc2)c1C
[1]
  IC50: 6.49 µM (not active)

## COc1ccc(C(=O)CCc2ccccc2O)c(OC)c1
[6]
  CC50: 41.8 µM (active)

## Cc1ccc(-c2csc(/C=C3\SC(C)C(=O)N3CC(=O)Nc3ccccc3F)n2)cc1 (stereo unspecified)
[1]
  IC50: 10.6 µM (active)

## CC(=O)O[C@@H]1[C@@H](O)[C@@H](O)[C@H](Oc2c(-c3ccc(O)cc3)oc3c(CC=C(C)C)c(O)cc(O)c3c2=O)O[C@H]1C
[6]
  CC50: 16.1 µM (active)

## Cc1ccc(-c2ccc([C@H]3[C@@H]4C=CCC[C@@]4(C)C(=O)N3Cc3ccccc3)c(F)c2)cc1
[1]
  IC50: 3.65 µM (not active)
[7]
  AC50: 3.55 µM (active)

## O=C(CC1CC2CCC1C2)OCC(=O)c1c[nH]c2ccccc12 (stereo unspecified)
[1]
  IC50: 27.5 µM (not active)

## CCCCCCCCO/C(O)=C1\C(C)=Nc2nnnn2C1c1cccs1 (stereo unspecified)
[15]
  EC50: 2.33 µM (active)
[16]
  EC50: > 50 µM (not active)
[1]
  IC50: 3.59 µM (not active)
[17]
  EC50: 7.3 µM (active)
[7]
  AC50: 6.65 µM (active)

## COc1ccc(S(=O)(=O)Oc2cccc(/C=N/NC3=NC(=O)C(CC(=O)O)S3)c2)cc1 (stereo unspecified)
[1]
  IC50: > 50 µM (not active)

## O=C(Oc1ccccc1)N1CCC2(CCCN(c3cccc(-c4ccccc4)c3)C2)CC1
[12]
  AC50: 15.8 µM (inconclusive)

## CCNc1ncc2nc(-c3ccc(OC)cc3)c(=O)n(Cc3cccs3)c2n1
[18]
  AC50: 0.631 µM (inconclusive)
[12]
  AC50: 7.94 µM (inconclusive)

## Cc1ccc(/N=C/c2nc(/C=C/c3cccc([N+](=O)[O-])c3)oc2O)cc1
[11]; read-out: AC50
  AC50: 7.94 µM (inconclusive)
[18]
  AC50: 2 µM (inconclusive)
[12]
  AC50: 3.16 µM (inconclusive)
[19]
  AC50: 17.8 µM (inconclusive)

## COc1ccc(C(=O)Nc2ccc(S(=O)(=O)NC(C)(C)C)cc2)cc1[N+](=O)[O-]
[1]
  IC50: 4.14 µM (not active)

## CCCOc1cccc(-c2nnc(NC(=O)c3ccco3)s2)c1
[8]
  EC50: 15.9 µM (active)
[9]
  EC50: 1.91 µM (active)

## COc1cc(/C=C2/C(=O)NN(c3ccc(Cl)cc3)C2=O)cc(OC)c1O
[8]
  EC50: > 160 µM (inactive)
[9]
  EC50: 2.27 µM (inconclusive)

## CC(OC(=O)c1ccccc1Nc1ccc(SC(F)F)cc1)C(N)=O (stereo unspecified)
[1]
  IC50: 12 µM (not active)

## Oc1cccc(Nc2nc(-c3ccccc3)nc3ccccc23)c1
[6]
  CC50: 13.3 µM (active)
